Reference: ChEMBL document CHEMBL4052645, “Discovery of potent and efficacious pyrrolopyridazines as dual JAK1/3 inhibitors” (Bioorg Med Chem Lett, 2017)

Key:
[1] = molecular target: JAK3/JAK1 (Homo sapiens, UniProt P23458+P52333); assay: Inhibition of JAK1/JAK3 in human whole blood assessed as reduction in IL-2 induced IFN-gamma production after 18 hrs by ELISA; assay type: protein-complex assay
[2] = molecular target: Myotonin-protein kinase (Homo sapiens) (UniProt Q09013); assay: Inhibition of human DMPK1 (V47 to N415 residues) expressed in bacterial expression system assessed as residual activity at 50 nM by KINOMEscan assay relative to control
[3] = molecular target: Tyrosine-protein kinase JAK3 (Homo sapiens) (UniProt P52333); assay: Inhibition of human JAK3 D2 domain (I781 to S1124 residues) expressed in mammalian expression system assessed as residual activity at 50 nM by KINOMEscan assay relative to control
[4] = molecular target: Serine/threonine-protein kinase 26 (Homo sapiens) (UniProt Q9P289); assay: Inhibition of full lengthhuman MST4 (M1 to P416 residues) expressed in mammalian expression system assessed as residual activity at 50 nM by KINOMEscan assay relative to control
[5] = molecular target: Serine/threonine-protein kinase SIK2 (Homo sapiens) (UniProt Q9H0K1); assay: Inhibition of wild-type human full length QIK (M1 to N926 residues) expressed in bacterial expression system assessed as residual activity at 50 nM by Kinomescan method relative to control
[6] = molecular target: Non-receptor tyrosine-protein kinase TYK2 (Homo sapiens, UniProt P29597); assay: Inhibition of TYK2 (unknown origin) assessed as residual activity at 50 nM by KINOMEscan assay relative to control
[7] = molecular target: Mitogen-activated protein kinase kinase kinase 11 (Homo sapiens) (UniProt Q16584); assay: Inhibition of wild-type human partial length MLK3 (I77 to W399 residues) expressed in bacterial expression system assessed as residual activity at 50 nM by Kinomescan method relative to control
[8] = system: Phosphatidylinositol 4,5-bisphosphate 3-kinase catalytic subunit alpha isoform (Homo sapiens), P42336 [H1047Y]; assay: Inhibition of human partial length PIK3CA H1047Y mutant (R108 to N1068 residues) expressed in mammalian expression system assessed as residual activity at 50 nM by Kinomescan method relative to control
[9] = molecular target: Activin receptor type-2B (Homo sapiens) (UniProt Q13705); assay: Inhibition of wild-type human ACTR2B (H169 to D504 residues) expressed in bacterial expression system assessed as residual activity at 50 nM by Kinomescan method relative to control
[10] = molecular target: Serine/threonine-protein kinase TAO2 (Homo sapiens) (UniProt Q9UL54); assay: Inhibition of wild-type human partial length TAO2 (M1 to A320 residues) expressed in mammalian expression system assessed as residual activity at 50 nM by Kinomescan method relative to control
[11] = molecular target: Serine/threonine-protein kinase PAK 4 (Homo sapiens) (UniProt O96013); assay: Inhibition of wild-type human partial length PAK4 (Q144 to R438 residues) expressed in bacterial expression system assessed as residual activity at 50 nM by Kinomescan method relative to control
[12] = molecular target: Serine/threonine-protein kinase MRCK alpha (Homo sapiens) (UniProt Q5VT25); assay: Inhibition of wild-type human partial length MRCKA (L57 to V418 residues) expressed in bacterial expression system assessed as residual activity at 50 nM by Kinomescan method relative to control
[13] = molecular target: Proto-oncogene tyrosine-protein kinase Src (Homo sapiens) (UniProt P12931); assay: Inhibition of wild-type human partial length SRC (L240 to L536 residues) expressed in bacterial expression system assessed as residual activity at 50 nM by Kinomescan method relative to control
[14] = molecular target: Tyrosine-protein kinase receptor Tie-1 (Homo sapiens) (UniProt P35590); assay: Inhibition of wild-type human partial length TIE1 (T819 to A1138 residues) expressed in bacterial expression system assessed as residual activity at 50 nM by Kinomescan method relative to control
[15] = molecular target: Receptor-interacting serine/threonine-protein kinase 2 (Homo sapiens) (UniProt O43353); assay: Inhibition of wild-type human partial length RIPK2 (M1 to K310 residues) expressed in bacterial expression system assessed as residual activity at 50 nM by Kinomescan method relative to control
[16] = molecular target: Serine/threonine-protein kinase PRP4 homolog (Homo sapiens) (UniProt Q13523); assay: Inhibition of wild-type human partial length PRP4 (D657 to I1007 residues) expressed in bacterial expression system assessed as residual activity at 50 nM by Kinomescan method relative to control
[17] = molecular target: Ribosomal protein S6 kinase beta-1 (Homo sapiens) (UniProt P23443); assay: Inhibition of wild-type human partial length P70S6K (M1 to S421 residues) expressed in mammalian expression system assessed as residual activity at 50 nM by Kinomescan method relative to control
[18] = molecular target: Tyrosine-protein kinase ABL1 (Homo sapiens) (UniProt P00519); assay: Inhibition of wild-type human non-phosphorylated ABL1 (S229 to K512 residues) expressed in mammalian expression system assessed as residual activity at 50 nM by Kinomescan method relative to control
[19] = molecular target: Calcium/calmodulin-dependent protein kinase type 1G (Homo sapiens) (UniProt Q96NX5); assay: Inhibition of wild-type human partial length CAMK1G (M1 to A342 residues) expressed in bacterial expression system assessed as residual activity at 50 nM by Kinomescan method relative to control
[20] = molecular target: Casein kinase I isoform gamma-3 (Homo sapiens) (UniProt Q9Y6M4); assay: Inhibition of wild-type human full length CK1G3 (M1 to K447 residues) expressed in bacterial expression system assessed as residual activity at 50 nM by Kinomescan method relative to control
[21] = molecular target: Dual specificity protein kinase CLK1 (Homo sapiens) (UniProt P49759); assay: Inhibition of wild-type human full length CLK1 (M1 to I484 residues) expressed in bacterial expression system assessed as residual activity at 50 nM by Kinomescan method relative to control
[22] = molecular target: Serine/threonine-protein kinase LATS2 (Homo sapiens) (UniProt Q9NRM7); assay: Inhibition of wild-type human partial length LATS2 (Q641 to V1088 residues) expressed in mammalian expression system assessed as residual activity at 50 nM by Kinomescan method relative to control
[23] = system: Phosphatidylinositol 4,5-bisphosphate 3-kinase catalytic subunit alpha isoform (Homo sapiens), P42336 [C420R]; assay: Inhibition of human partial length PI3KCA C420R mutant (R108 to N1068 residues) expressed in mammalian expression system assessed as residual activity at 50 nM by Kinomescan method relative to control
[24] = molecular target: Rhodopsin kinase GRK1 (Homo sapiens) (UniProt Q15835); assay: Inhibition of wild-type human full length RHOK (M1 to S563 residues) expressed in mammalian expression system assessed as residual activity at 50 nM by Kinomescan method relative to control
[25] = molecular target: Testis-specific serine/threonine-protein kinase 1 (Homo sapiens) (UniProt Q9BXA7); assay: Inhibition of wild-type human full length TSSK1B (M1 to Q367 residues) expressed in bacterial expression system assessed as residual activity at 50 nM by Kinomescan method relative to control

Chain of Serine/threonine-protein kinase PAK 4 (Homo sapiens) (O96013 whole entry, looked up, the tested form may be a part): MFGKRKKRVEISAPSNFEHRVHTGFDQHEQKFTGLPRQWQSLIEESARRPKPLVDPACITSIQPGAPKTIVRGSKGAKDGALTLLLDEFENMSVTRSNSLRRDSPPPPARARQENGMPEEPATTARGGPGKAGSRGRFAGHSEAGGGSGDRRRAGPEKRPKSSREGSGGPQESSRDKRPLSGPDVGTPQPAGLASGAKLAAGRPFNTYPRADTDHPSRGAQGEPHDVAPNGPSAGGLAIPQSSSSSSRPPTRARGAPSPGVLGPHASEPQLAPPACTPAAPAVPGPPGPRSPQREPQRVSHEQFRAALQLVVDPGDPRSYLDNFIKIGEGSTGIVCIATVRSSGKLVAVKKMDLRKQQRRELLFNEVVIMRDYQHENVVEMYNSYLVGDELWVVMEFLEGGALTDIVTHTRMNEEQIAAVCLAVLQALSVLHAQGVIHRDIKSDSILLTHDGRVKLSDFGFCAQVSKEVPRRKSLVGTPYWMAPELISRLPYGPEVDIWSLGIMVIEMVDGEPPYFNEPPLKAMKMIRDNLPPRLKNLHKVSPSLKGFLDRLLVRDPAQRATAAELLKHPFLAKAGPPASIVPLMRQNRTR
Chain of Serine/threonine-protein kinase LATS2 (Homo sapiens) (Q9NRM7 whole entry, the tested form may be a part, canonical isoform): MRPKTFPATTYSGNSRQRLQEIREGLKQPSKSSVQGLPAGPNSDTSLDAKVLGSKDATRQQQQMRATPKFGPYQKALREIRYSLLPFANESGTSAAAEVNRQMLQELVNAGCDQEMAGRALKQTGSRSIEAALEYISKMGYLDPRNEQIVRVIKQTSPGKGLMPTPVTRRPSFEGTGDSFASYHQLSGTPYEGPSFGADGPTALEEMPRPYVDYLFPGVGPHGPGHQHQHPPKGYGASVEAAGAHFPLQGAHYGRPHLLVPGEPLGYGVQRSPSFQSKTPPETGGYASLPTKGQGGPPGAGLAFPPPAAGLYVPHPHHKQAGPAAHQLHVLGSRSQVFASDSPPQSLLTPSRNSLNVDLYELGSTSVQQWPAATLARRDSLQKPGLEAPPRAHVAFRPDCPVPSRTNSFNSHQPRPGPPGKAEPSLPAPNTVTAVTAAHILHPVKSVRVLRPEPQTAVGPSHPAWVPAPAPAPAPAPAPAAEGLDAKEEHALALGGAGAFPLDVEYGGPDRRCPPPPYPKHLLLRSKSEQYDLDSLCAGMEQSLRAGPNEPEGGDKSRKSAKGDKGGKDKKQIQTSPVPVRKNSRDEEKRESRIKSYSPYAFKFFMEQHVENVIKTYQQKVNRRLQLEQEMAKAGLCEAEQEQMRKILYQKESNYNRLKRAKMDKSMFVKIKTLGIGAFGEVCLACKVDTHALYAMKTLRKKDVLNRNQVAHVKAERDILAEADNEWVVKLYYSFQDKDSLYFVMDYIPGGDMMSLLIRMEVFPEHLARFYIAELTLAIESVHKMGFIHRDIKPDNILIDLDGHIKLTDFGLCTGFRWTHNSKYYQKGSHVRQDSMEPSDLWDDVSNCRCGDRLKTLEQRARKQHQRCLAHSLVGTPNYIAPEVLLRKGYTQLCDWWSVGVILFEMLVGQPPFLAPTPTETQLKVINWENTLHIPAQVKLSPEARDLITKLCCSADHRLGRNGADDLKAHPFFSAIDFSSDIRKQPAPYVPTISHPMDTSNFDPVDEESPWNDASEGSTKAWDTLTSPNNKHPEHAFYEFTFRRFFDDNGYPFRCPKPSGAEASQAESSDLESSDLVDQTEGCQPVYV
Chain of Receptor-interacting serine/threonine-protein kinase 2 (Homo sapiens) (O43353 whole entry, the tested form may be a part): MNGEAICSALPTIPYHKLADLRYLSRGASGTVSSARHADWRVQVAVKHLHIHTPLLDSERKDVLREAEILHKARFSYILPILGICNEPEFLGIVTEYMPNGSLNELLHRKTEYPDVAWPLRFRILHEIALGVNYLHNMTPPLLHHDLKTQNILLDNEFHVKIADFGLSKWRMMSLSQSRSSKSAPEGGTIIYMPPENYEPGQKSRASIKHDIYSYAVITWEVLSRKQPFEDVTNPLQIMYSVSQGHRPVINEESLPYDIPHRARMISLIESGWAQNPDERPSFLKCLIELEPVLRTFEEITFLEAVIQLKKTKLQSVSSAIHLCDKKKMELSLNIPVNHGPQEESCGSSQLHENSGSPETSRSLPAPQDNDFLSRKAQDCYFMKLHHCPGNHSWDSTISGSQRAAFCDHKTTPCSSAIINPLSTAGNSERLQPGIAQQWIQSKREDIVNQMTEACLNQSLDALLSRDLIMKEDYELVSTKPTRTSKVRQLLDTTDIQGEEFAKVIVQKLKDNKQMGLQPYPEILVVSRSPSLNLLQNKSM
Chain of Casein kinase I isoform gamma-3 (Homo sapiens) (Q9Y6M4 whole entry, looked up, the tested form may be a part, canonical isoform): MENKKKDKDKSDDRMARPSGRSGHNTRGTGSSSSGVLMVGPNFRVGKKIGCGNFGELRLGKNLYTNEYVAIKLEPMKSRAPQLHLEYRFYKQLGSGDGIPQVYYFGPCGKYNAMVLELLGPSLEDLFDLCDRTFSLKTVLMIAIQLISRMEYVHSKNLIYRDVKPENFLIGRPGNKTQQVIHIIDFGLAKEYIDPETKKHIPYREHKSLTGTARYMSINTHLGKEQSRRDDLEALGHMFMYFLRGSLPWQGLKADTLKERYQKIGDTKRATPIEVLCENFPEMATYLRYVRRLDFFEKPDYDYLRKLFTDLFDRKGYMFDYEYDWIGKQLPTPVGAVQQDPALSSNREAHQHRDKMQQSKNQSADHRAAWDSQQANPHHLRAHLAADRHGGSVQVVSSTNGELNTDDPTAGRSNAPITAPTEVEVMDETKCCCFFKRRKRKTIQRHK
Chain of Serine/threonine-protein kinase TAO2 (Homo sapiens) (Q9UL54 whole entry, the tested form may be a part): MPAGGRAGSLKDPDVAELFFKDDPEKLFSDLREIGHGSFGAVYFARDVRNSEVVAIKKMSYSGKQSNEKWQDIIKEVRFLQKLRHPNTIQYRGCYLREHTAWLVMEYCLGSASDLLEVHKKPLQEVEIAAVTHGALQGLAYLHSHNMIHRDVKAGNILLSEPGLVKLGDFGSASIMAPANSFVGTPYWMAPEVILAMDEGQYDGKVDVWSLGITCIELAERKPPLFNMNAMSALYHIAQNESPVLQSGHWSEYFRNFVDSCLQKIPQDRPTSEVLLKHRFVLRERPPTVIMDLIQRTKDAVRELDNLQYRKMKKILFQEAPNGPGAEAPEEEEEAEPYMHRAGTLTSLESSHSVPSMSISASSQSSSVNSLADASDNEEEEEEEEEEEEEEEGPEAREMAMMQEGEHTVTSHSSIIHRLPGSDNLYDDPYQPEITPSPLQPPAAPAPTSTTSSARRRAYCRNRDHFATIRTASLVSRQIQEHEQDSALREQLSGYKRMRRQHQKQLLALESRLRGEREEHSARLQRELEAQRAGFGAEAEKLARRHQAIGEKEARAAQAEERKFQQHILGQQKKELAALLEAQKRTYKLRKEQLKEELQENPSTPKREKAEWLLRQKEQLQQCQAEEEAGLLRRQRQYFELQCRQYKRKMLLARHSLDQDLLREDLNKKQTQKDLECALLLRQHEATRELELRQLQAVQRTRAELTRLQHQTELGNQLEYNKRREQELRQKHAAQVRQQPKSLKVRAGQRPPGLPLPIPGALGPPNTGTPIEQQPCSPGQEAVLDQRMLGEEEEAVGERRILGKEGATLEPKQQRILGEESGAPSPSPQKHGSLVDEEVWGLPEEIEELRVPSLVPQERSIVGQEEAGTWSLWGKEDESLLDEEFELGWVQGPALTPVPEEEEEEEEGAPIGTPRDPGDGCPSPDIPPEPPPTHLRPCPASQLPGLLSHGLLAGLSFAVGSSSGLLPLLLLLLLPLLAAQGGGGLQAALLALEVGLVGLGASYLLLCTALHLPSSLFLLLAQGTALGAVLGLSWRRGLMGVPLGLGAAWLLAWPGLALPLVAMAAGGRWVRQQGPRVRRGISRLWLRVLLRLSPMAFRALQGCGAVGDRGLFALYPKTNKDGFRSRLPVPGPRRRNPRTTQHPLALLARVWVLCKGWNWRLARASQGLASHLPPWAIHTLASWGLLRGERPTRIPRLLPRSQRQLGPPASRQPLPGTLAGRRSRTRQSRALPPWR
Chain of Non-receptor tyrosine-protein kinase TYK2 (P29597 whole entry, the tested form may be a part): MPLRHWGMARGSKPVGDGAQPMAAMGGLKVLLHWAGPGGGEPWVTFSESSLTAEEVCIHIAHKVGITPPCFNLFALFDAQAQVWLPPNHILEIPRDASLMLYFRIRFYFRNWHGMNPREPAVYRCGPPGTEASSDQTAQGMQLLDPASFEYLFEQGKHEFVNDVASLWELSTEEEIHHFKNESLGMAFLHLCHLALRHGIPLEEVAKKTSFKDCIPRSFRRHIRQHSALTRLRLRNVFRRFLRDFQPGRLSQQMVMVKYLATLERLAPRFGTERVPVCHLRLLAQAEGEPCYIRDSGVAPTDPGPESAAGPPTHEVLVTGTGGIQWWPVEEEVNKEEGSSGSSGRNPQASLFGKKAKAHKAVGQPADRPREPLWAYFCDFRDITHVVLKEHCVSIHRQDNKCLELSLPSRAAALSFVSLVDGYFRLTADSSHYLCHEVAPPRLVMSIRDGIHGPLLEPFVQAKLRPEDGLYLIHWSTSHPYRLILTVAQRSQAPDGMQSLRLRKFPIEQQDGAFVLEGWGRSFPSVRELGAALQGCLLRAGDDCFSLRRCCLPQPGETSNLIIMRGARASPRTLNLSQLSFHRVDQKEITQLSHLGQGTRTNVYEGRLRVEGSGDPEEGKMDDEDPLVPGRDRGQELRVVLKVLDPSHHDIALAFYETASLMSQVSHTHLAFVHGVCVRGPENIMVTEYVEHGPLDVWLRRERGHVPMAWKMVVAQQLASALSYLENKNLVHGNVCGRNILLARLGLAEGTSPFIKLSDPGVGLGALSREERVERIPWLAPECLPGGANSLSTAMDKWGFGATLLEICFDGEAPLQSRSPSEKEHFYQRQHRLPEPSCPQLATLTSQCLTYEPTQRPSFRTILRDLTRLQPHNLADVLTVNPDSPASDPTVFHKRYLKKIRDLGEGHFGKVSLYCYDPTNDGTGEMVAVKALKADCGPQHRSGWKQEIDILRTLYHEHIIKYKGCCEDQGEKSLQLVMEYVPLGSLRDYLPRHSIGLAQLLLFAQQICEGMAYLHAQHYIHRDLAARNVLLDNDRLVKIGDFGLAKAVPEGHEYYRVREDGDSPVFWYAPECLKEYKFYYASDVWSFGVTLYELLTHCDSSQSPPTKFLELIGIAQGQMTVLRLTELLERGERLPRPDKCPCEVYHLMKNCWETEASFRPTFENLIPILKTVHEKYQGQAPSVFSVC

| SMILES | IC50 [1] | Activity [2] | Activity [3] | Activity [4] | Activity [5] | Activity [6] | Activity [7] | Activity [8] | Activity [9] | Activity [10] | Activity [11] | Activity [12] | Activity [13] | Activity [14] | Activity [15] | Activity [16] | Activity [17] | Activity [18] | Activity [19] | Activity [20] | also measured |
| --- | --- | --- | --- | --- | --- | --- | --- | --- | --- | --- | --- | --- | --- | --- | --- | --- | --- | --- | --- | --- | --- |
| CC1(C)[C@H](Nc2c(C(N)=O)cnn3cc(-c4ccccc4)cc23)CC[C@]1(C)N | 200 nM | 2.8% | 3.8% | 12% | 36% | 50% | 64% | 66% | 67% | 72% | 73% | 74% | 75% | 91% | 93% | 95% | 96% | 100% | 100% | 100% | Activity [21]: 100%; Activity [22]: 100%; Activity [23]: 100%; Activity [24]: 100%; Activity [25]: 100% |
| COc1ccc(-c2cc3c(N[C@@H]4CC[C@](C)(N)C4(C)C)c(C(N)=O)cnn3c2)cn1 | 100 nM | 38% | 40% | 23% | 63% | 50% | 100% | 100% | 100% | 81% | 86% | 97% | 97% | 97% | 100% | 97% | 97% | 90% | 82% | 100% | Activity [21]: 97%; Activity [22]: 94%; Activity [23]: 100%; Activity [24]: 100%; Activity [25]: 100% |
